System: total brain infarct models (gerbils, bilateral common carotid arteries obstructed for 15 minutes)
Experiment: Total brain infarct model, survival (Test Example 2)
Format: in vivo, gerbil
Conditions: 3 mg/kg intraperitoneally twice (60 min before obstruction, 90 min after reperfusion), n=11, vehicle group 0%, p<0.05
Experimental: Mature male gerbils were divided into 2 groups and total brain infarct models were constructed by obstructing the bilateral common carotid arteries for 15 minutes (Nagisa et al., Basic Pharmacology & Therapeutics,23, 103-108, 1995). Control saline (vehicle) (Group A) and compound 2 (3 mg/kg) (Group B) were administered intraperitoneally twice, namely 60 minutes before obstruction and 90 minutes after reperfusion and the survival rates at 8 hours following reperfusion were compared between the groups. Intergroup comparison was made by ANOVA test (one-way analysis of variance).

Molecule	survival rate at 8 hours after reperfusion
COc1ccccc1Oc1c(NS(=O)(=O)c2ccc(C(C)(C)C)cc2)nc(-c2ncccn2)nc1OCCO [compound 2, 4-Tert-butyl-N-[6-(2-hydroxyethoxy)-5-(2-methoxyphenoxy)-2,2'-bipyrimidin-4-yl]-benzene sulfonamide]	36%

System: endothelin A receptor / endothelin B receptor / endothelin converting enzyme
Experiment: not given
Conditions: ETA: endothelin A receptor; ETB: endothelin B receptor; ECE: endothelin converting enzyme (inhibition); from the literature cited in the tables; cited from earlier work

Molecule	Selectivity
27-O-3-[2-(3-carboxy-acryloylamino)-5-hydroxyphenyl]-acryloyloxy myricerone, sodium salt [97-139]	ETA
CCCc1cc(C(=O)O)ccc1OC(C(=O)NS(=O)(=O)c1ccc(C(C)C)cc1)c1ccc2c(c1)OCO2 (racemic) [L-749329, (±)N-(4-isopropylbenzenesulphonyl)-α-(4-carboxy-2-n-propylphenoxy)-3,4-methylene dioxyphenyl acetamide]	ETA
CCCc1cc(C(=O)OC)ccc1CC(C(=O)NS(=O)(=O)c1ccc(C(C)C)cc1)c1ccc2c(c1)OCO2 (racemic) [L-751281, (±)N-[2-(3,4-methylenedioxyphenyl)-3-(4-carbomethoxy-2-propylphenyl)-propanoly]-4-(isopropyl)benzene sulphonamide]	ETA
CCCc1cc(C(=O)O)ccc1OC(C(=O)NS(=O)(=O)c1ccc(C(C)C)cc1)c1ccc2c(c1)OCO2 (single isomer, unassigned; (-)) [L-754142, (-)N-(4-isopropylbenzenesulphonyl)-α-(4-carboxy-2-n-propylphenoxy)-3,4-methylene dioxyphenyl acetamide]	ETA
CC1(C)CC[C@]2(C(=O)O)CC[C@]3(COC(=O)/C=C/c4ccc(O)c(O)c4)C(=CC[C@@H]4[C@@]5(C)CCC(=O)C(C)(C)[C@@H]5CC[C@]43C)[C@@H]2C1 [50-235, 27-O-caffeoyl myricerone]	ETA
COC(=O)c1cc(O)cc(OC)c1Oc1cc(C)cc(O)c1C(=O)O [Asterric acid]	ETA
Cc1noc(NS(=O)(=O)c2cccc3c(N(C)C)cccc23)c1C [BMS-182874, 5-(dimethylamino)-N-(3,4-dimethyl-5-isoxazolyl)-1-naphthalene sulphonamide]	ETA
O=P(O)(O)CN[C@@H](Cc1ccc(-c2ccccc2)cc1)c1nnn[nH]1 [CGS-26303, (S)-2-diphenyl-4-yl-1-(1H-tetrazol-5-yl)-ethylaminomethyl phosphonic acid]	ECE
O=P(CN[C@@H](Cc1ccc(-c2ccccc2)cc1)c1nnn[nH]1)(Oc1ccccc1)Oc1ccccc1 [CGS-26393, diphenyl[(S)-2-diphenyl-4-yl-1-(1H-tetrazol-5-yl)-ethylamino-methyl] phosphonate]	ECE
CC(C)C[C@H](NC(=O)N1CCCCCC1)C(=O)NC(Cc1cn(C)c2ccccc12)C(=O)N[C@H](Cc1ccccn1)C(=O)O (stereo partly drawn) [FR139317, (R)-2-{(S)-2-([1-{hexahydro-1H-azepinyl}carbonyl]-amino-methyl-pentamoyl)}-amino-3-(3[1-methyl-1H-indolyl])propionylamino-3-(2-pyridyl)propionic acid]	ETA
Cc1cc(C)cc(C(=O)N(C)[C@H](Cc2ccc(-c3ccccc3)cc2)C(=O)N[C@@H](Cc2c[nH]c3ccccc23)C(=O)O)c1 [IRL2500, N-(3,5-dimethylbenzoyl)-N-methyl-(D)-[(4-phenyl)-phenyl]-alanyl-L-tryptophan]	ETB
Cc1cc(C)cc(C(=O)N(C)[C@H](Cc2ccc(-c3ccsc3)cc2)C(=O)N[C@@H](Cc2c[nH]c3ccccc23)C(=O)O)c1 [IRL2659, N-(3,5-dimethylbenzoyl)-N-methyl-(D)-[4-(3-thienyl)-phenyl]-alanyl-L-tryptophan]	ETB
Cc1cc(C)cc(C(=O)N(C)[C@H](Cc2ccc(-c3ccno3)cc2)C(=O)N[C@@H](Cc2c[nH]c3ccccc23)C(=O)O)c1 [IRL2796, N-(3,5-dimethylbenzoyl)-N-methyl-(D)-[4-(5-isoxazolyl)-phenyl]-alanyl-L-tryptophan]	ETB
CC(C)C[C@H](NP(=O)(O)CCc1ccc2ccccc2c1)C(=O)N[C@@H](Cc1c[nH]c2ccccc12)C(=O)O [N-2-(2-naphthyl)ethyl-phosphonyl-L-Leu-L-Trp]	ECE
CC(C)C[C@H](NC(=O)N1CCCCCC1)C(=O)N[C@H](Cc1cn(C)c2ccccc12)C(=O)N[C@H](Cc1ccc(O)cc1)C(=O)O [PD151242, (N-[(hexahydro-1-azepinyl)carbonyl])-L-Leu(1-Me)D-Trp-D-Tyr]	ETA
COc1ccc(C(=O)C(Cc2ccccc2)=C(C(=O)O)c2ccc3c(c2)OCO3)cc1 [PD155080, 2-benzo(1,3)dioxol-5-yl-3-benzyl-4-(4-methoxyphenyl)-4-oxobut-2-enoate]	ETA
CCCOc1cccc(CC(C(=O)c2ccc(OC)cc2)=C(C(=O)O)c2ccc3c(c2)OCO3)c1 [PD155719, 2-(1,3-benzodioxol-5-yl)-4-(4-methoxyphenyl)-4-oxo-3[(3-propoxyphenyl)methyl]-2-butenoic acid]	ETA

Molecule	Selectivity
COc1ccc(C(=O)C(Cc2cc(OC)c(OC)c(OC)c2)=C(C(=O)O)c2ccc3c(c2)OCO3)cc1 [PD156707, 2-benzo(1,3)dioxol-5-yl-4-(4-methoxyphenyl)-4-oxo-3-(3,4,5-trimethoxybenzyl)-but-2-enoate]	ETA
CCCCCOc1c(OC)cc(CC2=C(c3ccc4c(c3)OCO4)C(=O)OC2(O)c2ccc(OC)cc2)cc1OC (centres unmarked) [PD160672, 3-benzo(1,3)dioxol-5-yl-(3,5-dimethoxy-4-pentyloxybenzyl)-5-hydroxy-5-(4-methoxyphenyl)-5H-furan-2-one]	ETA/ETB
COc1cc(C2=C(CC3CCCCC3)C(O)(c3ccc4c(c3)OCCO4)OC2=O)cc2c1OCO2 (centres unmarked) [PD160874, 4-cryclohexyl-methyl-5-[2,3-dihydro-benzo(1,4)dioxin-6-yl]-5-hydroxy-3-[7-methoxybenzo(1,3)-dioxol-5-yl]-5H-furan-2-one]	ETA/ETB
CC(C)C[C@H](NP(=O)(O)O[C@@H]1O[C@@H](C)[C@H](O)[C@@H](O)[C@H]1O)C(=O)N[C@@H](Cc1c[nH]c2ccccc12)C(=O)O [Phosphoramidon, N-phosphonyl L-Leu-L-Trp]	ECE
COc1cccc(Oc2c(NS(=O)(=O)c3ccc(C(C)(C)C)cc3)ncnc2OCCO)c1 [Ro46-2005, 4-tert-butyl-N-[6-(2-hydroxyethoxy)-5-(3-methoxyphenoxy)-4-pyrimidinyl]-benzenesulphonamide]	ETA/ETB
COc1ccc(-c2nc(NS(=O)(=O)c3ccc(C(C)(C)C)cc3)c(Oc3ccccc3OC)c(OC[C@@H](O)CO)n2)cc1 [Ro46-8443, 4-tert-butyl-N-[(S)6-(2,3-dihydroxypropoxy)-5-(2-methoxyphenoxy)-2-(4-methoxyphenyl)-pyrimidin-4-yl]-benzene sulphonamide]	ETB
CC(C)C[C@H](NP(=O)(O)CC(O)CO)C(=O)N[C@@H](Cc1c[nH]c2ccccc12)C(=O)[O-].CC(C)C[C@H](NP(=O)(O)CC(O)CO)C(=O)N[C@@H](Cc1c[nH]c2ccccc12)C(=O)[O-].[Na+].[Na+] (stereo partly drawn) [S-17162, N-(2,3 dihydroxy propyl phosphonyl)-(S)-Leu-(S)-Trp-OH, disodium salt]	ECE
CCCOc1ccc2c(c1)[C@@H](c1ccc(OC)cc1OCCO)[C@H](C(=O)O)[C@H]2c1ccc2c(c1)OCO2 [SB-217242, (+)-(1S,2R,3S)-3-[2-(2-hydroxyeth-1-yloxy)-4-methoxyphenyl]-1-(3,4-methylenedioxyphenyl)-5-(prop-1-yloxy)indan-2-carboxylic acid]	ETA/ETB
CC(=O)NC(CSC12CCC3(O)CC(C)=CC(=O)C3(O)C1(O)C(=O)c1cccc(O)c1C2=O)C(=O)O (centres unmarked) [WS009A, 2-acetamido-3-[[1,4,4a,5,6,6a,7,12,12a,12b-decahydro-4a,8,12a,12b-tetra-hydroxy-3-methyl-1,7,12-trioxobenz[a]anthracen-6a-yl]-thio]propionic acid]	ETA
COc1ccccc1Oc1c(NS(=O)(=O)c2ccc(C(C)(C)C)cc2)nc(-c2ncccn2)nc1OCCO [compound 2, 4-Tert-butyl-N-[6-(2-hydroxyethoxy)-5-(2-methoxyphenoxy)-2,2'-bipyrimidin-4-yl]-benzene sulfonamide]	ETA/ETB
Ac-D-Bhg-Leu-Asp-Ile-Ile-Trp.2Na [PD145065]	ETA/ETB
Ac-D-Dip-Leu-Asp-Ile-Ile-Trp.2Na [PD142893]	ETA/ETB
Dmpc-.tau.-MeLeu-D-Trp(1-CO2 CH3)-D-Nle-OH [BQ-788]	ETB
[Cys^11 -Cys^15 ]-ET-1(11-21) [IRL-1038]	ETB
cyc(D-Trp-D-Asp-Pro-D-Val-Leu) [BQ-123]	ETA
cyc(Gly-Asn-Trp-His-Gly-Thr-Ala-Pro-Asp)-Trp-Phe-Asn-Tyr-Tyr-Trp [RES-7011]	ETB
cys(D-Sal-L-Pro-D-Val-L-Leu-D-Trp) [BQ-153]	ETA
